The supplement of paper PMC8671470
Counter-ions that a name gives are not always drawn.

Experiments:
Details in all cases: 72 h
[1] = tested on: myeloid leukemia patient primary cells Pat.10; assay: area under dose-response curve (viability, 1 nM-10 uM) (fraction (0-1)); higher = more sensitive
Outline: (§1)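 Seventy compounds were pre-printed on 384-well plates at five tenfold concentrations between 1 and 10,000 nM, in duplicate. Thawed mononuclear cells purified by Ficoll from AML or CML patients were added at 10,000 cells/well in RPMI 1640 with 10% FBS for 72 h. Viability by CellTiter-Glo was normalised to DMSO and 10 μM proteasome-inhibitor wells. Where stated, area under the curve was taken from log-logistic fits made with the drc and PharmacoGx R packages, each fit having four parameters.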

[2] = tested on: myeloid leukemia patient primary cells Pat.11; assay: as above
Outline: as §1

[3] = tested on: myeloid leukemia patient primary cells Pat.12; assay: as above
Outline: as §1

[4] = tested on: myeloid leukemia patient primary cells Pat.13; assay: as above
Outline: as §1

[5] = tested on: myeloid leukemia patient primary cells Pat.14; assay: as above
Outline: as §1

[6] = tested on: myeloid leukemia patient primary cells Pat.15; assay: as above
Outline: as §1

[7] = tested on: myeloid leukemia patient primary cells Pat.1; assay: as above
Outline: as §1

[8] = tested on: myeloid leukemia patient primary cells Pat.2; assay: as above
Outline: as §1

[9] = tested on: myeloid leukemia patient primary cells Pat.4; assay: as above
Outline: as §1

[10] = tested on: myeloid leukemia patient primary cells Pat.5; assay: as above
Outline: as §1

[11] = tested on: myeloid leukemia patient primary cells Pat.6; assay: as above
Outline: as §1

[12] = tested on: myeloid leukemia patient primary cells Pat.7; assay: as above
Outline: as §1

[13] = tested on: myeloid leukemia patient primary cells Pat.8; assay: as above
Outline: as §1

[14] = tested on: myeloid leukemia patient primary cells Pat.9; assay: as above
Outline: as §1

HL-60 = assay: cell viability (% survival relative to DMSO control); higher = less cytotoxic
Experimental: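 8x8 drug-combination matrices (0-5000 nM; rosiglitazone and lestaurtinib 0-1000 nM) were run in HL-60 cells for 72 h with a CellTiter-Glo read-out. Survival is normalised to DMSO and 10 µM bortezomib and clipped at 100%. Bliss synergy was analysed in SynergyFinder.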

O=C(c1c2ccccc2cc2ccccc12)N1CCC(N2CCC[C@@H](C(=O)N3CCOCC3)C2)CC1
Details	area under dose-response curve
[1]	< 0.0301
[2]	< 0.0301
[3]	< 0.0301
[4]	< 0.0301
[5]	< 0.0301
[6]	< 0.0301
[7]	< 0.0301
[8]	< 0.0301
[9]	< 0.0301
[10]	0.309
[11]	< 0.0301
[12]	0.312
[13]	< 0.0301
[14]	0.327

Oc1ncc(F)c(O)n1 [5-fluorouracil]
Details	area under dose-response curve
[1]	0.0668
[2]	< 0.0301
[3]	< 0.0301
[4]	< 0.0301
[5]	< 0.0301
[6]	< 0.0301
[7]	< 0.0301
[8]	< 0.0301
[9]	0.0407
[10]	0.188
[11]	< 0.0301
[12]	0.0322
[13]	< 0.0301
[14]	0.0717

CN(C)CCNC(=O)c1cccn2c(=O)c3cc4ccccc4cc3nc12 [Bmh-21]
Details	area under dose-response curve
[1]	0.263
[2]	0.31
[3]	0.233
[4]	0.338
[5]	0.254
[6]	0.386
[7]	0.368
[8]	0.0874
[9]	0.36
[10]	0.372
[11]	0.199
[12]	0.318
[13]	0.121
[14]	0.396

Clc1cc(Cl)c(OCC#CI)cc1Cl [Haloprogin]
Details	area under dose-response curve
[1]	0.411
[2]	0.166
[3]	0.204
[4]	0.152
[5]	0.427
[6]	0.183
[7]	0.258
[8]	0.209
[9]	0.323
[10]	0.677
[11]	0.238
[12]	0.356
[13]	0.175
[14]	0.505

c1ccc2c(c1)SCc1c-2[nH]c2ccccc12
Details	area under dose-response curve
[1]	0.505
[2]	0.148
[3]	0.165
[4]	0.176
[5]	0.403
[6]	0.22
[7]	0.132
[8]	0.142
[9]	0.192
[10]	0.787
[11]	0.14
[12]	0.259
[13]	0.139
[14]	0.397

CCCCCCCCCCCCC/C=C/[C@@H](O)[C@H](CO)N(C)C [N,N-Dimethylsphingosine]
Details	area under dose-response curve
[1]	0.468
[2]	0.0868
[3]	0.0829
[4]	0.131
[5]	0.273
[6]	0.113
[7]	0.0643
[8]	0.127
[9]	0.153
[10]	0.664
[11]	0.15
[12]	0.335
[13]	0.114
[14]	0.516

O=C(Oc1cccc(F)c1OC(=O)c1cccc(O)c1)c1cccc(O)c1 [WZB117]
Details	area under dose-response curve
[1]	0.176
[2]	0.0511
[3]	0.0633
[4]	< 0.0301
[5]	0.107
[7]	0.0346
[8]	0.0336
[9]	0.0833
[10]	0.748
[11]	< 0.0301
[12]	0.119
[13]	0.211
[14]	0.223

CN(C)C(=O)n1nnnc1Cc1ccc(-c2ccccc2)cc1 + CCOC(=O)N1c2ccc(C(F)(F)F)cc2[C@@H](N(Cc2cc(C(F)(F)F)cc(C(F)(F)F)c2)C(=O)OC)C[C@H]1CC [Torcetrapib]
cell viability [%], HL-60
Details	drug1 concentration 5 nM	drug1 concentration 10 nM	drug1 concentration 50 nM	drug1 concentration 100 nM	drug1 concentration 500 nM	drug1 concentration 1000 nM	drug1 concentration 5000 nM
drug2 concentration 5 nM	89.2	> 100	64.3	> 100	94.3	> 100	8.91
drug2 concentration 10 nM	> 100	> 100	> 100	> 100	> 100	90	15.4
drug2 concentration 50 nM	81.6	> 100	86.8	80.8	79.3	87.4	6.94
drug2 concentration 100 nM	91.3	> 100	> 100	82.7	> 100	80	14.4
drug2 concentration 500 nM	> 100	> 100	> 100	> 100	> 100	85	6.21
drug2 concentration 1000 nM	> 100	> 100	> 100	> 100	98.3	> 100	13
drug2 concentration 5000 nM	> 100	> 100	> 100	> 100	> 100	78.8	0

Oc1ncc(F)c(O)n1 [5-fluorouracil] + C[C@]12O[C@H](C[C@]1(O)CO)n1c3ccccc3c3c4c(c5c6ccccc6n2c5c31)CNC4=O [Lestaurtinib]
cell viability [%], HL-60
Details	drug1 concentration 5 nM	drug1 concentration 10 nM	drug1 concentration 50 nM	drug1 concentration 100 nM	drug1 concentration 500 nM	drug1 concentration 1000 nM	drug1 concentration 5000 nM
drug2 concentration 1 nM	> 100	> 100	53	> 100	89.7	66.2	62.9
drug2 concentration 5 nM	> 100	79.6	> 100	71.6	91.6	64.7	80.9
drug2 concentration 10 nM	73.2	98.7	> 100	> 100	84.2	50.3	66.5
drug2 concentration 50 nM	72	85.6	56.1	67.8	53.5	77.1	43
drug2 concentration 100 nM	60.5	67.5	68.8	63.6	74.3	51.8	32.6
drug2 concentration 500 nM	32.8	32.6	48.9	41.5	35.7	33.5	26.1
drug2 concentration 1000 nM	8.89	19.8	19.4	20.8	52.9	25.7	0

Nc1nc(O)c2c(CCc3ccc(C(=O)N[C@@H](CCC(=O)O)C(=O)O)cc3)c[nH]c2n1 [Pemetrexed]
Details	area under dose-response curve
[1]	< 0.0301
[2]	< 0.0301
[3]	< 0.0301
[4]	< 0.0301
[5]	< 0.0301
[6]	< 0.0301
[7]	< 0.0301
[8]	< 0.0301
[9]	< 0.0301
[10]	0.0877
[11]	< 0.0301
[12]	< 0.0301
[13]	< 0.0301
[14]	0.0468

CC(C)(Cc1ccccc1)NCC(O)c1ccc(O)c(NS(C)(=O)=O)c1 (stereo not given) [Zinterol hydrochloride]
Details	area under dose-response curve
[1]	< 0.0301
[2]	< 0.0301
[3]	< 0.0301
[4]	< 0.0301
[5]	< 0.0301
[6]	< 0.0301
[7]	< 0.0301
[8]	< 0.0301
[9]	< 0.0301
[10]	< 0.0301
[11]	< 0.0301
[12]	< 0.0301
[13]	< 0.0301
[14]	< 0.0301

CN(C)CCNC(=O)c1cccn2c(=O)c3cc4ccccc4cc3nc12 [Bmh-21] + O=C(O)CC[N+](=O)[O-] [3-nitropropionic acid]
cell viability [%], HL-60
Details	drug1 concentration 5 nM	drug1 concentration 10 nM	drug1 concentration 50 nM	drug1 concentration 100 nM	drug1 concentration 500 nM	drug1 concentration 1000 nM	drug1 concentration 5000 nM
drug2 concentration 5 nM	76.1	> 100	> 100	> 100	34.7	29.4	11.4
drug2 concentration 10 nM	85.5	> 100	> 100	89.3	54.7	48.5	34
drug2 concentration 50 nM	90.2	83.1	> 100	> 100	57	52.6	7.17
drug2 concentration 100 nM	> 100	> 100	> 100	> 100	45.9	28.8	4.7
drug2 concentration 500 nM	> 100	> 100	81.7	> 100	53.9	70	13.8
drug2 concentration 1000 nM	> 100	62.9	> 100	> 100	77.4	1.67	50.4
drug2 concentration 5000 nM	> 100	> 100	68.7	> 100	22	24.2	0

O=c1[nH]c(=O)n([C@H]2C[C@H](O)[C@@H](CO)O2)cc1I [Idoxuridine]
Details	area under dose-response curve
[1]	< 0.0301
[2]	< 0.0301
[3]	< 0.0301
[4]	< 0.0301
[5]	< 0.0301
[6]	< 0.0301
[7]	< 0.0301
[8]	< 0.0301
[9]	< 0.0301
[10]	< 0.0301
[11]	< 0.0301
[12]	< 0.0301
[13]	< 0.0301
[14]	< 0.0301

Fc1ccc(CNc2ncnc3ccc(F)cc23)cc1 [Spautin 1]
Details	area under dose-response curve
[1]	0.0351
[3]	< 0.0301
[4]	0.111
[5]	0.141
[6]	0.12
[7]	0.0783
[9]	0.0735
[10]	0.326
[11]	0.0755
[12]	0.154
[13]	0.0661
[14]	0.762

NS(=O)(=O)c1ccc(S(=O)(=O)Nc2cccc3c(Cl)c[nH]c23)cc1 [Indisulam]
Details	area under dose-response curve
[1]	< 0.0301
[3]	< 0.0301
[4]	0.167
[6]	0.0789
[7]	0.128
[8]	< 0.0301
[9]	0.29
[10]	0.379
[12]	0.228
[13]	0.0654
[14]	0.227

Nc1ccn([C@@H]2O[C@H](CO)[C@@H](O)C2(F)F)c(=O)n1 [Gemcitabine]
Details	area under dose-response curve
[1]	0.257
[3]	< 0.0301
[4]	0.0519
[5]	0.131
[6]	0.0872
[7]	0.0673
[8]	0.0848
[9]	0.155
[10]	0.956
[11]	< 0.0301
[12]	0.135
[13]	0.0474
[14]	0.956

Cc1nnc(-c2ccc(N3CCC(Oc4ccccc4C(F)(F)F)CC3)nn2)s1 [MF-438]
Details	area under dose-response curve
[1]	< 0.0301
[2]	< 0.0301
[3]	< 0.0301
[4]	< 0.0301
[5]	< 0.0301
[7]	< 0.0301
[8]	< 0.0301
[10]	0.232
[11]	< 0.0301
[12]	0.128
[13]	< 0.0301
[14]	< 0.0301

O=C(Cc1cccc(OC(F)(F)F)c1)Nc1ccc(CCCCc2nnc(NC(=O)Cc3ccccn3)s2)nn1 [CB-839]
Details	area under dose-response curve
[1]	0.665
[2]	< 0.0301
[3]	< 0.0301
[4]	< 0.0301
[5]	0.434
[6]	0.283
[7]	< 0.0301
[8]	< 0.0301
[9]	< 0.0301
[10]	< 0.0301
[11]	< 0.0301
[12]	0.532
[13]	< 0.0301
[14]	0.752

C=C1NC(=O)c2cc(CN(C)c3ccc(C(=O)N[C@@H](CCC(=O)O)C(=O)O)s3)ccc2N1 [Raltitrexed]
Details	area under dose-response curve
[1]	< 0.0301
[2]	< 0.0301
[3]	< 0.0301
[4]	< 0.0301
[5]	< 0.0301
[6]	< 0.0301
[7]	< 0.0301
[8]	< 0.0301
[9]	< 0.0301
[10]	< 0.0301
[11]	< 0.0301
[12]	< 0.0301
[13]	< 0.0301
[14]	< 0.0301

O=C(/C=C/c1cccnc1)NCCCCC1CCN(C(=O)c2ccccc2)CC1 [Daporinad]
Details	area under dose-response curve
[1]	0.956
[2]	0.849
[3]	0.772
[4]	0.754
[5]	0.977
[6]	0.792
[7]	0.616
[8]	0.754
[9]	0.947
[10]	0.995
[11]	0.609
[12]	0.995
[13]	0.823
[14]	0.995

CCC(CC#N)OC(=O)N[C@@H](C)c1cccc(NC(=O)Nc2ccc(-c3cnco3)c(OC)c2)c1 (stereo in doubt) [AVN-944]
Details	area under dose-response curve
[1]	0.508
[3]	< 0.0301
[4]	0.162
[5]	0.167
[8]	< 0.0301
[9]	0.162
[10]	0.641
[12]	0.545
[14]	0.438
